Assay results from the supplement of paper PMC10307832.

Tests used:
Test in all cases: relative viability (nuclei count vs DMSO), 5 days (fraction); higher = more cells survive
AZ3146 + AZD7762 = compound: CN1CCC(CC1)OC2=CC(=C(C=C2)NC3=NC=C4C(=N3)N(C(=O)N4C)C5CCCC5)OC [AZ3146] + NC(=O)Nc1cc(-c2cccc(F)c2)sc1C(=O)N[C@H]1CCCNC1 [AZD7762] (partner 0.2 µM)
In short: (§1)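 One day after seeding in 1536-well plates, lung cancer cell lines were dosed by pin tool. Dosing was either single-drug or a fixed anchor-drug dose plus five library-drug doses (not always all listed) in √10 steps. After 5 days, nuclei were stained in one fix-and-stain step and counted on 4× images, and relative viability is the nuclei count of treated wells over that of vehicle wells, given as the median of duplicate plates.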

GSK-J4 + Pictilisib = compound: CCOC(=O)CCNc1cc(N2CCc3ccccc3CC2)nc(-c2ccccn2)n1 [GSK-J4] + CS(=O)(=O)N1CCN(Cc2cc3nc(-c4cccc5[nH]ncc45)nc(N4CCOCC4)c3s2)CC1 [Pictilisib] (partner 1 µM)
In short: as §1

GSK-J4 + Decitabine = compound: CCOC(=O)CCNc1cc(N2CCc3ccccc3CC2)nc(-c2ccccn2)n1 [GSK-J4] + Nc1ncn([C@H]2C[C@H](O)[C@@H](CO)O2)c(=O)n1 [Decitabine] (partner 2 µM)
In short: as §1

AZ3146 + Trametinib = compound: CN1CCC(CC1)OC2=CC(=C(C=C2)NC3=NC=C4C(=N3)N(C(=O)N4C)C5CCCC5)OC [AZ3146] + CC(=O)Nc1cccc(-n2c(=O)n(C3CC3)c(=O)c3c(Nc4ccc(I)cc4F)n(C)c(=O)c(C)c32)c1 [Trametinib] (partner 0.02 µM)
In short: as §1

Cell Line	relative viability (AZ3146 + AZD7762; first compound 0.08 µM)	relative viability (AZ3146 + AZD7762; first compound 0.253 µM)	relative viability (AZ3146 + AZD7762; first compound 0.8 µM)	relative viability (AZ3146 + AZD7762; first compound 2.53 µM)	relative viability (AZ3146 + AZD7762; first compound 8 µM)	relative viability (GSK-J4 + Pictilisib; first compound 0.5 µM)	relative viability (GSK-J4 + Pictilisib; first compound 1.581 µM)	relative viability (GSK-J4 + Pictilisib; first compound 5 µM)	relative viability (GSK-J4 + Pictilisib; first compound 15.81 µM)	relative viability (GSK-J4 + Pictilisib; first compound 50 µM)	relative viability (GSK-J4 + Decitabine; first compound 0.5 µM)	relative viability (GSK-J4 + Decitabine; first compound 1.581 µM)	relative viability (GSK-J4 + Decitabine; first compound 5 µM)	relative viability (GSK-J4 + Decitabine; first compound 15.81 µM)	relative viability (GSK-J4 + Decitabine; first compound 50 µM)	relative viability (AZ3146 + Trametinib; first compound 0.08 µM)	relative viability (AZ3146 + Trametinib; first compound 0.253 µM)	relative viability (AZ3146 + Trametinib; first compound 0.8 µM)	relative viability (AZ3146 + Trametinib; first compound 2.53 µM)	relative viability (AZ3146 + Trametinib; first compound 8 µM)
LOU-NH91	0.778	0.755	0.802	0.775	0.743	0.596	0.508	0.542	0.532	0.518	0.789	0.798	0.703	0.774	0.805	0.838	0.76	0.867	0.794	0.781
LU99A		0.378	0.295	0.276	0.264	0.277	0.276	0.292	0.346	0.219	0.791	0.725		0.846	0.554		0.501	0.567	0.68	0.579
LXF-289	1.02	1.16	1.05	1.1	1.05	0.761	0.655	0.691	0.754	0.562	0.388	0.376	0.403	0.394	0.406	0.629	0.688	0.633	0.651	0.633
NCI-H23	0.157	0.3	0.27	0.216	0.163	0.535		0.545	0.49	0.319	0.261	0.271	0.303	0.279	0.282	0.455	0.354	0.391	0.422	0.402
NCI-H322M	0.595	0.529	0.581	0.825	0.506	0.544	0.574	0.7	0.538	0.465	0.687	0.687	0.81	0.379	0.671	0.555	0.45	0.435	0.537	0.527
NCI-H358	0.346	0.469	0.363	0.581	0.313	0.459	0.304	0.377	0.407	0.268	0.206		0.216	0.177	0.159	0.162	0.123	0.139	0.127	0.12
NCI-H441	1.08	1.31	1.14	1.09	0.949	0.427	0.458	0.571	0.506	0.403	0.203	0.279	0.205	0.217	0.271	0.512	0.438	0.429	0.501	0.362
NCI-H460	0.461	0.744	0.522	0.546	0.559	0.43	0.457	0.519	0.343	0.217	0.444		0.411	0.429	0.47	0.132	0.134	0.0913	0.0867	0.107
NCI-H596	1.11	1.21	1.15	0.986	1.13	0.417	0.428	0.365	0.431	0.369	0.923	1.03	0.906	0.773	1.02	0.806	0.643	0.766	0.89	0.919
NCI-H647	0.272	0.541	0.486	0.342	0.326	0.576	0.479	0.272	0.426	0.353	0.376	0.393	0.374	0.337	0.496	0.365	0.44	0.366	0.476	0.317
NCI-H650	0.915	0.652	0.952	1.06	1.21	0.839	0.798	0.789	0.779	0.468	0.289	0.326		0.283	0.334	0.899	0.959	0.959	0.994	1.09
NCI-H727	0.642	0.575	0.562	0.568	0.57	0.379		0.691	0.427	0.18	0.856	0.753	0.904	0.87	0.611	0.359	0.365	0.335	0.417	0.364
NCI-H838	0.931	0.921	0.844	0.963	0.698	0.624	0.407		0.467	0.433	0.459	0.363	0.407	0.406	0.316	0.553	0.467	0.462	0.481	0.227
NCI-H1355	0.621	0.738	0.676	0.672	0.551	0.521	0.302	0.397	0.418	0.478	0.354	0.364	0.342	0.325	0.335	0.441	0.429	0.435	0.435	0.439
NCI-H1395	0.352	0.389		0.379	0.4	0.578	0.524	0.544	0.573	0.518	0.781	0.718	0.632	0.751	0.661	0.999	1.08		1.07	1.09
NCI-H1437	0.887	1.2	1.09	1.14	1.1	0.454	0.352	0.385	0.435	0.165	0.574	0.363	0.564	0.552	0.358	0.445	0.48	0.511	0.489	0.361

Cell Line	relative viability (AZ3146 + AZD7762; first compound 0.08 µM)	relative viability (AZ3146 + AZD7762; first compound 0.253 µM)	relative viability (AZ3146 + AZD7762; first compound 0.8 µM)	relative viability (AZ3146 + AZD7762; first compound 2.53 µM)	relative viability (AZ3146 + AZD7762; first compound 8 µM)	relative viability (GSK-J4 + Pictilisib; first compound 0.5 µM)	relative viability (GSK-J4 + Pictilisib; first compound 1.581 µM)	relative viability (GSK-J4 + Pictilisib; first compound 5 µM)	relative viability (GSK-J4 + Pictilisib; first compound 15.81 µM)	relative viability (GSK-J4 + Pictilisib; first compound 50 µM)	relative viability (GSK-J4 + Decitabine; first compound 0.5 µM)	relative viability (GSK-J4 + Decitabine; first compound 1.581 µM)	relative viability (GSK-J4 + Decitabine; first compound 5 µM)	relative viability (GSK-J4 + Decitabine; first compound 15.81 µM)	relative viability (GSK-J4 + Decitabine; first compound 50 µM)	relative viability (AZ3146 + Trametinib; first compound 0.08 µM)	relative viability (AZ3146 + Trametinib; first compound 0.253 µM)	relative viability (AZ3146 + Trametinib; first compound 0.8 µM)	relative viability (AZ3146 + Trametinib; first compound 2.53 µM)	relative viability (AZ3146 + Trametinib; first compound 8 µM)
NCI-H1651	0.277	0.382	0.351	0.398	0.385	0.578	0.416	0.668	0.639	0.389	0.599	0.622	0.599	0.537	0.508	0.736	0.779	0.833	0.789	0.797
NCI-H1666	0.819	0.806	0.808	0.74	0.887	0.325		0.419	0.603	0.364	0.747	0.726	0.84	0.666	0.674	0.848	0.875	0.851	0.887	0.761
NCI-H1734	0.262	0.535	0.545	0.563	0.337	0.464	0.508	0.401	0.426	0.341	0.542	0.447	0.507	0.492	0.376	0.641	0.663	0.594	0.662	0.62
NCI-H1755	0.502	0.482	0.455	0.445	0.519	0.453	0.38	0.378	0.387	0.331	0.727	0.569	0.641	0.61	0.709	0.674	0.787	0.714	0.783	0.785
NCI-H1792	0.414	0.631	0.641	0.601	0.617	0.306	0.25	0.254	0.244	0.263	0.559	0.472	0.589	0.428	0.43	0.37	0.38	0.415	0.421	0.516
NCI-H1793	0.259	0.397	0.259	0.229	0.178	0.249	0.171	0.54	0.364	0.337	0.394	0.371	0.305	0.204	0.196	0.374	0.419	0.393	0.515	0.418
NCI-H1915	0.673	0.714	0.75	0.729	0.745	0.905	0.774	0.901	0.962	1.03	0.253	0.235		0.239	0.247	0.312	0.303	0.294	0.306	0.319
NCI-H1944	0.311	0.509	0.482	0.516	0.469	0.374	0.346	0.353	0.336	0.288	0.411	0.381		0.367	0.412	0.375	0.424	0.435	0.45	0.459
NCI-H1975	0.628		0.752	0.778	0.638	0.279	0.31		0.344	0.402	0.401	0.352	0.323	0.376	0.394	0.315	0.351	0.29	0.348	0.306
NCI-H1993	0.662	0.695	0.812	1.01	0.581	0.834	0.845	0.807	0.684	0.725	0.643	0.554	0.388	0.6	0.507	0.562	0.508	0.472	0.519	0.469
NCI-H2085	0.912	0.974	0.95	1.04	0.708	0.546	0.463	0.677	0.481	0.415	0.511	0.501	0.512	0.548	0.491	0.495	0.57	0.506	1.03	0.403
NCI-H2087	1.18	1.36	1.22	1.38	1.16	0.816	0.341		0.999	0.424	0.312	0.218	0.353	0.224	0.249	0.201	0.196	0.214	0.214	0.182
NCI-H2126	0.932	1	0.948	1.16	0.998	0.517	0.446	0.633	0.519	0.41	0.625	0.573	0.59	0.53	0.539	0.58	0.553	0.503	0.534	0.547
NCI-H2170	0.85	0.889	0.871	0.814	0.713	0.325	0.381	0.27	0.357	0.221	0.453	0.422	0.459	0.463	0.464	0.888	1.04	0.861	0.928	0.859
NCI-H2347	0.577	0.934	0.649	0.746	0.677	0.623	0.596	0.855	0.731	0.494	0.584	0.606	0.57	0.58	0.503	0.295	0.308	0.326	0.293	0.326
NCI-H2405	0.838	0.771	0.702	0.589	0.618	0.465	0.713		0.708	0.475	0.719	0.781		0.689	0.757	0.731	0.537	0.666	0.663	0.676
